According to ChEMBL document CHEMBL1909046, “DrugMatrix in vitro pharmacology data”:

Tests used:
[1] = molecular target: Sigma non-opioid intracellular receptor 1 (Homo sapiens, UniProt Q99720); experiment: DRUGMATRIX: Sigma1 radioligand binding (ligand: [3H] Haloperidol); assay type: cell membranes, Jurkat, Membrane; settings: jurkat; Not Active = under 50% inhibition at 10 µM
[2] = DRUGMATRIX: Glutamate, NMDA, Agonism radioligand binding (ligand: [3H] CGP-39653); assay type: cell membranes, Rattus norvegicus, Wistar, Cerebral cortex, Membrane; settings: Not Active = under 50% inhibition at 10 µM
Cytochrome P450 2E1 = Cytochrome P450 2E1 (Homo sapiens, UniProt P05181); settings: bti-tn-5b1-4; further: in other assays of this panel Not Active means under 50% inhibition at 10 µM
Chain of Cytochrome P450 2E1 (P05181 whole entry): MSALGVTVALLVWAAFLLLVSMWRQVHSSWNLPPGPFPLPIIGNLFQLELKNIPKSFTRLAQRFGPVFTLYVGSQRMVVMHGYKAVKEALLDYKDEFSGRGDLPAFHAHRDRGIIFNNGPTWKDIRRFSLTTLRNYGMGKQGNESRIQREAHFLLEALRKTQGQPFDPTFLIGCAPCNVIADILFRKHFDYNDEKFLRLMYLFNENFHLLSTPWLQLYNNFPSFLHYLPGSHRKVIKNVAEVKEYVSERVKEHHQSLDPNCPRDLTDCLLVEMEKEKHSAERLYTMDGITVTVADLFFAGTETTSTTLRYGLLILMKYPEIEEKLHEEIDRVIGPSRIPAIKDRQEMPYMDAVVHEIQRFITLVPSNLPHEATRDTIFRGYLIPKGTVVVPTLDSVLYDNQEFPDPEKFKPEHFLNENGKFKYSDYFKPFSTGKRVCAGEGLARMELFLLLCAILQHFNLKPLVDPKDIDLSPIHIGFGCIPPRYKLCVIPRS

Leukotriene C4 synthase = molecular target: T1, Leukotriene C4 synthase (Cavia porcellus, UniProt A6XA80); assay type: tissue-based, Lung;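 further: enzyme inhibition assay of leukotriene C4 synthase, using LTA4 as the substrate; in other assays of this panel Not Active means under 50% inhibition at 10 µM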
T1 sequence (A6XA80 whole entry): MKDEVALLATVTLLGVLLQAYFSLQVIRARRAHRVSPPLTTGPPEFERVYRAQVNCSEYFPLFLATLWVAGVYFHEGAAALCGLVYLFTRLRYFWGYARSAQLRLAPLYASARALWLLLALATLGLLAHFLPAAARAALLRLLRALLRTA

Neutrophil elastase = molecular target: T2, Neutrophil elastase (Homo sapiens, UniProt P08246); assay type: tissue-based;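 further: inhibition of neutrophil elastase enzyme activity, measured with a p-nitroanilide-linked peptide substrate; in other assays of this panel Not Active means under 50% inhibition at 10 µM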
T2 sequence (P08246 whole entry): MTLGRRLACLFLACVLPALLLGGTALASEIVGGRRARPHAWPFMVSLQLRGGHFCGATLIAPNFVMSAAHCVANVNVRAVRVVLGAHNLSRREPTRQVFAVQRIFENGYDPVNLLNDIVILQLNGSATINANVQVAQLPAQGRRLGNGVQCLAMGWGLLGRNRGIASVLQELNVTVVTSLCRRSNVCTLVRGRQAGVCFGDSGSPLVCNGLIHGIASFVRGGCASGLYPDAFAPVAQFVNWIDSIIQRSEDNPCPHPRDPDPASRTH

[3] = DRUGMATRIX: Phosphodiesterase PDE3 enzyme inhibition (substrate: [3H]cAMP + cAMP); assay type: tissue-based, Homo sapiens; settings: platelet; Not Active = under 50% inhibition at 10 µM
[4] = molecular target: Tyrosine-protein kinase Fyn (Homo sapiens, UniProt P06241); experiment: biochemical; assay type: cell-based, Insect cells;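 further: enzymatic inhibition of Fyn kinase activity measured with Poly(Glu:Tyr) as the phosphorylation substrate; in other assays of this panel Not Active means under 50% inhibition at 10 µM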
Chain of Tyrosine-protein kinase Fyn (P06241 whole entry): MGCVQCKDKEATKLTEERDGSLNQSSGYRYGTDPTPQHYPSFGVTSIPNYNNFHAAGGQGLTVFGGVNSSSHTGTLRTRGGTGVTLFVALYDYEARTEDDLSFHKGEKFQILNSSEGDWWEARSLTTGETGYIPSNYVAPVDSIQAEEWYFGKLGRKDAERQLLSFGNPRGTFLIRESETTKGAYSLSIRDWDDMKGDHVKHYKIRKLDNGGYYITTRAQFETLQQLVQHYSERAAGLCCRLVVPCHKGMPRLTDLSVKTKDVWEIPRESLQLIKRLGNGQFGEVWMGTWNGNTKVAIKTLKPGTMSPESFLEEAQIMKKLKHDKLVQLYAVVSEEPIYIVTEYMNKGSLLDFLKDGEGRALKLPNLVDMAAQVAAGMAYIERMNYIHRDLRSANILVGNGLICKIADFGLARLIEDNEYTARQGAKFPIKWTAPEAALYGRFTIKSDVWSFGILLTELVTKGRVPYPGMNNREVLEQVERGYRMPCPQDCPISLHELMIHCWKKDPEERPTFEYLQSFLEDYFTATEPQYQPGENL

Chain of Sigma non-opioid intracellular receptor 1 (Q99720 whole entry): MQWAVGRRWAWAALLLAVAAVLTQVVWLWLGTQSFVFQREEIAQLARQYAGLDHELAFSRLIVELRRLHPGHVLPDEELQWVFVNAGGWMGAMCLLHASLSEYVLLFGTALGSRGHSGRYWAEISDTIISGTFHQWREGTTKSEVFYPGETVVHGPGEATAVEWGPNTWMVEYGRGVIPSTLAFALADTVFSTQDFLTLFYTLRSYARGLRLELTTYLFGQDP

SMILES	IC50 [1]	IC50 [2]	Ki [2]	IC50 (Cytochrome P450 2E1)	Ki (Cytochrome P450 2E1)	IC50 (Leukotriene C4 synthase)	IC50 (Neutrophil elastase)	IC50 [3]	Ki [3]	IC50 ([4]; insect cells)	IC50 [4] [µM]	IC50 ([4]; read-out: IC50) [µM]
C[C@H]1C[C@H]2[C@@H]3CCC4=CC(=O)C=C[C@]4(C)[C@@]3(Cl)[C@@H](O)C[C@]2(C)[C@@]1(O)C(=O)CO [BECLOMETHASONE]	Not Active	Not Active	Not Active	Not Active	Not Active	Not Active	Not Active	Not Active	Not Active	Not Active		
CCOC(=O)[C@H](CCc1ccccc1)N[C@H]1CCc2ccccc2N(CC(=O)O)C1=O [BENAZEPRIL]	Not Active	Not Active	Not Active	Not Active	Not Active	Not Active	Not Active	Not Active	Not Active	Not Active		
Nc1c(CC(=O)O)cccc1C(=O)c1ccc(Br)cc1 [BROMFENAC]	Not Active	Not Active	Not Active	Not Active	Not Active	Not Active	Not Active	Not Active	Not Active	Not Active		
CCCCN1CCCCC1C(=O)Nc1c(C)cccc1C.Cl (stereo not given) [BUPIVACAINE HYDROCHLORIDE]	Not Active	Not Active	Not Active	Not Active	Not Active	Not Active	Not Active	Not Active	Not Active	Not Active		
C[C@@]12C(=O)OC(=O)[C@]1(C)[C@H]1CC[C@@H]2O1 [CANTHARIDIN]	Not Active	Not Active	Not Active	Not Active	Not Active	Not Active	Not Active	Not Active	Not Active	Not Active		
CC1=C(C(=O)O)N2C(=O)[C@@H](NC(=O)[C@H](N)c3ccccc3)[C@H]2SC1 [CEPHALEXIN ANHYDROUS]	Not Active	Not Active	Not Active	Not Active	Not Active	Not Active	Not Active	Not Active	Not Active	Not Active		
ClC(Cl)Cl [CHLOROFORM]	Not Active	Not Active	Not Active	Not Active	Not Active	Not Active	Not Active	Not Active	Not Active	Not Active		
C=C1CC[C@H](O)C/C1=C/C=C1\CCC[C@]2(C)[C@@H]([C@H](C)CCCC(C)C)CC[C@@H]12 [CHOLECALCIFEROL]	Not Active	Not Active	Not Active	Not Active	Not Active	Not Active	Not Active	Not Active	Not Active	Not Active		
C[N+](C)(C)CCO.[Cl-] [CHOLINE CHLORIDE]	Not Active	Not Active	Not Active	Not Active	Not Active	Not Active	Not Active	Not Active	Not Active	Not Active		
CCOC(=O)C(C)(C)Oc1ccc(Cl)cc1 [CLOFIBRATE]	Not Active	Not Active	Not Active	Not Active	Not Active	Not Active	Not Active	Not Active	Not Active	Not Active		
CC(=O)OCC(=O)[C@@]1(O)CC[C@H]2[C@@H]3CCC4=CC(=O)CC[C@]4(C)[C@H]3C(=O)C[C@@]21C [CORTISONE ACETATE]	Not Active	Not Active	Not Active	Not Active	Not Active	Not Active	Not Active	Not Active	Not Active	Not Active		
O=c1ccc2ccccc2o1 [COUMARIN]	Not Active	Not Active	Not Active	Not Active	Not Active	Not Active	Not Active	Not Active	Not Active	Not Active		
CN(C)/N=N/c1[nH]cnc1C(N)=O [DACARBAZINE]	Not Active	Not Active	Not Active	Not Active	Not Active	Not Active	Not Active	Not Active	Not Active	Not Active		
COc1ccc2c(c1)[C@]13CCCC[C@@H]1[C@H](C2)N(C)CC3 [DEXTROMETHORPHAN]	Not Active	Not Active	Not Active	Not Active	Not Active	Not Active	Not Active	Not Active	Not Active	Not Active		
CC(=O)Nc1c(I)c(NC(C)=O)c(I)c(C(=O)O)c1I [DIATRIZOIC ACID]	Not Active	Not Active	Not Active	Not Active	Not Active	Not Active	Not Active	Not Active	Not Active	Not Active		
COP(=O)(OC)OC=C(Cl)Cl [DICHLORVOS]	Not Active	Not Active	Not Active	Not Active	Not Active	Not Active	Not Active	Not Active	Not Active	Not Active		
O=C(O)Cc1ccccc1Nc1c(Cl)cccc1Cl [DICLOFENAC]	Not Active	Not Active	Not Active	Not Active	Not Active	Not Active	Not Active	Not Active	Not Active	Not Active		
C[C@H]1O[C@@H](O[C@H]2[C@@H](O)C[C@H](O[C@H]3[C@@H](O)C[C@H](O[C@H]4CC[C@@]5(C)[C@H](CC[C@@H]6[C@@H]5CC[C@]5(C)[C@@H](C7=CC(=O)OC7)CC[C@]65O)C4)O[C@@H]3C)O[C@@H]2C)C[C@H](O)[C@@H]1O [DIGITOXIN]	Not Active	Not Active	Not Active	Not Active	Not Active	Not Active	Not Active	Not Active	Not Active	Not Active		
CCN1CC(CCN2CCOCC2)C(c2ccccc2)(c2ccccc2)C1=O (stereo not given) [DOXAPRAM]	Not Active	Not Active	Not Active	Not Active	Not Active	Not Active	Not Active	Not Active	Not Active	Not Active		
Cn1c(=O)c2c(ncn2CC2OCCO2)n(C)c1=O [DOXOFYLLINE]	Not Active	Not Active	Not Active	Not Active	Not Active	Not Active	Not Active	Not Active	Not Active	Not Active		
COc1cccc2c1C(=O)c1c(O)c3c(c(O)c1C2=O)C[C@@](O)(C(=O)CO)C[C@@H]3O[C@H]1C[C@H](N)[C@H](O)[C@H](C)O1 [DOXORUBICIN]	Not Active	Not Active	Not Active	Not Active	Not Active	Not Active	Not Active	Not Active	Not Active		5.15	
COc1cccc2c1C(=O)c1c(O)c3c(c(O)c1C2=O)C[C@@](O)(C(=O)CO)C[C@@H]3O[C@H]1C[C@H](N)[C@@H](O)[C@H](C)O1 [EPIRUBICIN]	Not Active	Not Active	Not Active	Not Active	Not Active	Not Active	Not Active	Not Active	Not Active			5.18
C[C@]12CC[C@@H]3c4ccc(OC(=O)c5ccccc5)cc4CC[C@H]3[C@@H]1CC[C@@H]2O [ESTRADIOL BENZOATE]	Not Active	Not Active	Not Active	Not Active	Not Active	Not Active	Not Active	Not Active	Not Active			23
C[C@]12CC[C@@H]3c4ccc(O)cc4CC[C@H]3[C@@H]1CC[C@@H]2O [ESTRADIOL]	Not Active	Not Active	Not Active	Not Active	Not Active	Not Active	Not Active	Not Active	Not Active	Not Active		
CC[C@@H](CO)NCCN[C@@H](CC)CO [ETHAMBUTOL]	Not Active	Not Active	Not Active	Not Active	Not Active	Not Active	Not Active	Not Active	Not Active	Not Active		
